Measured values taken from ChEMBL document CHEMBL1151654, “Antineoplastic and piscicidal 1-alkyldaphnane orthoesters from Pimelea species” (J Nat Prod, 1985).

How the values were obtained:
Gambusia affinis = experiment: Toxicity against Gambusia affinis at 30 to 60 ug/L within 24 hrs; type: organism-based; conditions: in vivo
P388 [1] = experiment: In vivo antitumor activity against mouse P388 cells at 100 ug/kg relative to control; type: functional
P388 [2] = experiment: In vivo antitumor activity against mouse P388 cells at 300 ug/kg relative to control; type: functional

| Structure (SMILES) | Activity (Gambusia affinis) | T/C (P388 [1]) [%] | T/C (P388 [2]) [%] |
| --- | --- | --- | --- |
| C=C(C)[C@@]12C[C@@H](COC(=O)c3ccccc3)[C@@]34OC5(O[C@@H]1[C@@H]3[C@@H]1O[C@]1(CO)[C@@H](O)[C@@]1(O)[C@H]4[C@H]([C@H](C)[C@@H]1OC(=O)c1ccccc1)[C@H](C)CCCCCC[C@H]5O)O2 [GNIDIMACRIN] | Toxic | – | – |
| C=C(C)[C@@]12C[C@@H](C)[C@@]34OC5(O[C@@H]1[C@@H]3[C@@H]1O[C@]1(CO)[C@@H](O)[C@@]1(O)[C@H]4[C@H]([C@H](C)[C@@H]1OC(=O)c1ccccc1)[C@H](C)CCCCCC[C@H]5O)O2 [KRAUSSIANIN] | Toxic | – | – |
| C=C1C(=O)O[C@H]2C[C@@H](C)[C@@H]3C=CC(=O)[C@@]3(C)[C@H](OC(C)=O)[C@H]12 [LINIFOLIN A] | Toxic | 107 | – |
| C=C(C)[C@@]12C[C@@H](C)[C@@]34OC5(O[C@@H]1[C@@H]3[C@@H]1O[C@]1(CO)[C@@H](O)[C@@]1(O)[C@H]4[C@H]([C@H](C)[C@@H]1OC(=O)c1ccccc1)[C@@H](C)CCCCCC[C@H]5O)O2 [LINIMACRIN C] | Toxic | – | – |
| C=C(C)[C@]12OC34CCCCCCC[C@@H](C)[C@H]5[C@H](C)[C@H](OC(=O)c6ccccc6)[C@@]6(O)[C@H](O)[C@@]7(CO)O[C@H]7[C@@H]([C@H]1O3)[C@](O4)([C@H](C)[C@H]2OC(C)=O)[C@H]56 [LINIMACRIN D] | Toxic | – | 132 |
| C=C(C)[C@]12C[C@@H](C)[C@@]34OC5(CCCCCCC[C@H](C)[C@H]6[C@H](C)[C@H](OC(=O)c7ccccc7)[C@@](O)([C@H](O)[C@@]7(CO)O[C@H]7[C@H]3[C@H]1O5)[C@@H]64)O2 [PIMELEA FACTOR P2] | Toxic | – | – |
| C=C(C)[C@@]12C[C@@H](C)[C@@]34OC5(CCCCCCC[C@@H](C)[C@H]6[C@H](C)[C@H](OC(=O)c7ccccc7)[C@@](O)([C@H](O)[C@@]7(CO)O[C@H]7[C@H]3[C@H]1O5)[C@@H]64)O2 [PIMELEA FACTOR P3] | Toxic | – | 164 |
| C=C(C)[C@@]12C[C@@H](COC(=O)c3ccccc3)[C@@]34OC5(O[C@@H]1[C@@H]3[C@@H]1O[C@]1(CO)[C@@H](O)[C@@]1(O)[C@H]4[C@H]([C@H](C)[C@@H]1OC(=O)c1ccc(OC(C)=O)cc1)[C@H](C)CCCCCC[C@H]5O)O2 [SIMPLEXIMACRIN] | Toxic | – | – |
